Experimental data published in patent publication US20170216297A1, “EFFICIENT INHIBITION OF HSP27” (TECHNISCHE UNIVERSITAET DRESDEN, priority 2014, published 2017).

Tests used:
[1] = target: T1, HSP27 (Homo sapiens, UniProt P04792); test: SpeedScreen gel filtration binding test (Sephadex G-25, detection by mass spectroscopy)
Source text: For the experimental validation of low-molecular-weight compounds which act as potential HSP27 inhibitors according to the in silico prediction, a method based on gel filtration was employed. The method for detecting molecular bonds using gel filtration was described in 2004 as “SpeedScreen” [Muckenschnabel et al., 2004] and was adapted to meet the requirements of the invention. […] For the separation, PD SpinTraps G-25 from GE Healthcare were used. During the 2-minute centrifugation at 800×g (according to operating instructions), these columns allow molecules with a molecular weight of greater than or equal to 5000 g/mol to pass through, while smaller molecules are retained in the matrix. The target protein HSP27 has a molecular weight of 27000 g/mol and therefore passes through the matrix. […] Non-bound low-molecular-weight compounds are retained by the matrix. Molecules that have passed through the matrix can then be detected by mass spectroscopy. This enables “binders” to be differentiated from “non-binders”. For the experimental validation of low-molecular-weight compounds which act as potential HSP27 inhibitors according to the in silico prediction, a method based on gel filtration was employed. […] Molecules that have passed through the matrix can then be detected by mass spectroscopy. […]

[2] = target: T1, HSP27; test: Capillary electrophoresis of the CS protein precipitates (precipitated citrate synthase as measure of HSP27 inhibition); assay type: biochemical; settings: 10 μmol/L; 43° C. for 120 minutes; 750 μmol/L BVDU set at 1
Description: (§1) Since the heat-denatured protein aggregates of the citrate synthase from Example 1 are not water-soluble, these can be separated completely from the supernatant by means of centrifugation at room temperature at 16,000×g, 10 min. By using capillary electrophoresis, the compositions of the separated precipitates can be shown and quantified. The relative quantity of protein of precipitated citrate synthase serves as a measure of the efficacy of the test substances.
(§2) In each case, 481 nmol/L HSP27 and 1.44 μmol/L citrate synthase in 40 mmol/L HEPES buffer, pH 7.4, were employed. The relative quantity of protein of the precipitated citrate synthase in each case was normalized using a defined quantity of BSA as internal standard. The relative quantity of protein that precipitated when using 750 μmol/L BVDU was set at 1. The other test substances (2 representatives of phenothiazine derivatives of general formula (V), 2 representatives of purine derivatives of formula (I) or (II)) were each employed at a concentration of 10 μmol/L.
as §1, with “Example 2” for “Example 1”
as §2, with “nM” for “nmol/L”, “thymine” for “purine”, “were” for “were each”, “μmol/L in each case.” for “μmol/L.”
Otherwise, the experiments were performed as described above: […]

[3] = target: T1, HSP27; test: Bio-layer interferometry (ForteBio Octet Red 384, biotinylated HSP27 on SSA sensors); assay type: binding; settings: bio-layer interferometry; read-out: KD
Source text: Bio-layer interferometry is a technique for detecting biomolecular interactions. It is an analytical technique that measures the optical interference of white light which is reflected by two surfaces: in each case, one surface consists of a layer of the immobilized target protein on the tip of the biosensor and one is an internal reference surface. The binding of ligands to the target protein alters the interference pattern and can be measured in real time.
For the measurements, an instrument of the ForteBio Octet Red 384 brand was used. The target protein HSP27 was biotinylated and bound to the appropriate sensors (SSA). […] The purine derivatives of general formula (I) or (II) pre-identified by means of in silico screening are employed for these measurements in a concentration range (KD) of between 333 μmol/L and 10 nmol/L.
For measurements by bio-layer interferometry, biotinylated HSP27 protein was first bound to Super-Streptavidin sensors (SSA, Fortebio). The loaded sensors were then incubated (“quenched”) with biocytin. As reference, unloaded SSA sensors were incubated with biocytin. In the case of a specific binding to HSP27 of the analyte to be measured, the loaded HSP27 sensor generates a stronger signal (response) than the concurrent reference sensor. After the “baseline” has been established by incubation with the reaction buffer (PBST 0.1% Tween 20 plus 3% DMSO), first the association and then the dissociation of the respective analyte is measured in real time. The analytes were measured in increasing concentrations in each case: 1.23-3.7-11.11-33.33-100-300 μM/l.

T1 sequence (P04792 whole entry): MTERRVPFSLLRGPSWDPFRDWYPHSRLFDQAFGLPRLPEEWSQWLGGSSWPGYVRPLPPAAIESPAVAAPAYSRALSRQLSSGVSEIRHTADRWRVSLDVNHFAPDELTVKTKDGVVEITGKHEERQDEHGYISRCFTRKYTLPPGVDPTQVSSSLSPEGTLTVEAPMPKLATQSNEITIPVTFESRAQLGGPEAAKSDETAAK

- Binding to HSP27 by SpeedScreen (passage through the Sephadex G-25 matrix) [1]: tested positively
- Rel. quantity of protein prec. CS [2]: 0.99
- Kd [3]: 72 µM
SMILES: CC(=O)c1ccc2c(c1)N(CCCN(C)C)c1ccccc1S2 [Acepromazine]
